The values below come from article PMC9924089, “In Silico Discovery of Small Molecule Modulators Targeting the Achilles’ Heel of SARS-CoV-2 Spike Protein” (ACS Central Science, 2023).

A word on the Kd: it is the concentration at which binding is half-saturated. Low readings indicate a tighter complex, high ones a looser complex.

In test [1] the target is prototypic SARS-CoV-2 spike protein (Severe acute respiratory syndrome coronavirus 2, UniProt P0DTC2, K986P/R682S/R683G/R685G/V987P). Nature of the test: biochemical. It counts as binding.
In a further test the target is SARS-CoV-2 spike protein (Severe acute respiratory syndrome coronavirus 2, UniProt P0DTC2, K986P/R682S/R683G/R685G/V987P).

Regarding `CCCCCC(=O)Oc1ccc(/N=N/c2ccc(C#N)cc2)cc1` [0054-0201], in test [1], the “Response at 50 μM (%)” value worked out at 23.5%.

With `CC(=O)Nc1ccc(Oc2ccc3c(c2)C(=O)N(c2cccc(C)c2)C3=O)cc1` [0584-0466], in test [1], the “Response at 50 μM (%)” value is 21.5%.

As for `CCCCCCCCOc1ccc(OC(=O)c2ccco2)cc1` [0606-5952], the “Response at 50 μM (%)” value in test [1] amounted to 24.2%.

`CCCCCCCOc1ccc(C2=N/C(=C/c3ccco3)C(=O)O2)cc1` [0782-7025]: in test [1], the “Response at 50 μM (%)” value came to 12.8.

Consider `COc1cccc(/C=C2/N=C(c3ccc(NC(C)=O)cc3)OC2=O)c1` [2082-0203], for which the “Response at 50 μM (%)” value in test [1] stood at 17.9.

In the case of `CCN(CC)c1ccc(/C=N/c2ccc(S(N)(=O)=O)cc2)cc1` [2166-0281], the “Response at 50 μM (%)” value in test [1] came to 21.

Regarding `O=c1/c(=C/c2ccc(-c3cccc([N+](=O)[O-])c3)o2)sc2nc(-c3cccs3)nn12` [5629-0125], the “Response at 50 μM (%)” value in test [1] came out at 16.

In the case of `O=C(COc1ccc(-c2cnc3ccccc3n2)cc1)c1cccs1` [6420-3607], the “Response at 50 μM (%)” value in test [1] is reported as 11.9.

For the molecule `O=C(Oc1ccc(OC(=O)c2c(Cl)nsc2Cl)cc1)c1c(Cl)nsc1Cl` [8002-0592], in test [1], the “Response at 50 μM (%)” value stood at 14.4.

Regarding `N#Cc1ccc(/N=C/c2cc([N+](=O)[O-])ccc2Cl)cc1` [AE-641/08724023], in test [1], the “Response at 50 μM (%)” value was 19.

On to `CCC(=O)Nc1ccc(C(=O)OCC(=O)c2ccc(Cl)c(Cl)c2)cc1` [AJ-292/41945407], for which the “Response at 50 μM (%)” value in test [1] is 7.7.

For the molecule `O=C(COC(=O)c1ccc(Cl)cc1Cl)c1ccc(OC(=O)c2ccco2)cc1` [AK-918/41968204], the “Response at 50 μM (%)” value in test [1] is on record as 5.4.

As for `CCOc1ccc(C(=O)COC(=O)c2ccc(NC(C)=O)cc2)cc1` [AK-918/42180074], the “Response at 50 μM (%)” value in test [1] stood at 5.7.

As for `CCCCOC(=O)c1ccc(OC(=O)c2cccc3ccccc23)cc1` [AN-652/43024838], the “Response at 50 μM (%)” value in test [1] is 5.6.

On to `COc1ccc(/C=C/c2nn3c(Cc4ccccc4F)nnc3s2)cc1` [AP-501/43286897], for which, in test [1], the “Response at 50 μM (%)” value amounted to 17.8.

In the case of `CC(=O)Nc1ccc(-c2cn3cc(Sc4ccccc4)ccc3n2)cc1` [AQ-776/42801545], in test [1], the “Response at 50 μM (%)” value stood at 19.5.

Consider `Cn1c(CSc2nc3ccccc3s2)nnc1SCC(=O)NCCO` [C592-3799], for which the “Response at 50 μM (%)” value in test [1] was 25.5%.

As for `COC(=O)c1ccc2c(c1)C(=O)/C(=C/c1ccc(-c3cccc(C(F)(F)F)c3)o1)O2` [C711-0480], in test [1], the “Response at 50 μM (%)” value is recorded as 23.4%.

With `COc1ccc(-n2nnc3c(SCC(=O)OCc4ccccc4)ncnc32)cc1` [F0682-1220], the “Response at 50 μM (%)” value in test [1] came to 9.

With `NCc1cncc(-c2ccccc2)c1` [F1905-6556], the “Response at 50 μM (%)” value in test [1] is given as 14.1.

Consider `O=C(CCn1ccc(=O)[nH]c1=O)NCc1cc(-c2ccccc2F)on1` [F2493-3278], for which the “Response at 50 μM (%)” value in test [1] worked out at 18.5.

With `COc1ccc(-c2cc(COC(=O)CC3CCCCC3)no2)cc1` [F2496-0660], in test [1], the “Response at 50 μM (%)” value turned out to be 10.1.

Take `O=C(OCc1cc(-c2ccc(F)cc2F)on1)c1ccc2[nH]cnc2c1` [F2496-3037]: in test [1], the “Response at 50 μM (%)” value is 3.6.

Regarding `O=C(CSc1ccncc1)OCc1cc(-c2ccccc2F)on1` [F2496-3101], in test [1], the “Response at 50 μM (%)” value was 14.

Regarding `O=C(CCn1ccc(=O)[nH]c1=O)OCc1cc(-c2ccco2)on1` [F2496-3133], the “Response at 50 μM (%)” value in test [1] is 21.1%.

As for `O=C(OCc1cc(-c2cc3ccccc3o2)on1)c1ccc2[nH]cnc2c1` [F2496-3295], the “Response at 50 μM (%)” value in test [1] amounted to 16.2.

On to `CCCOC(=O)c1ccc(OCC(=O)c2ccc(O)cc2O)cc1` [F3139-1680], for which the “Response at 50 μM (%)” value in test [1] is listed as 13.9.

As to `COc1ccccc1-c1cc2c(=O)n(Cc3nc(-c4ccccn4)no3)ccn2n1` [F3382-3571], the “Response at 50 μM (%)” value in test [1] amounted to 8.9.

`CCCCOC(=O)c1ccc(NC(=O)c2cc(=O)c(OC)co2)cc1` [F5449-0108]: the “Response at 50 μM (%)” value in test [1] worked out at 15.8.

Regarding `O=C(CCn1ccc(=O)[nH]c1=O)N1CC(c2nc(-c3cccc(Cl)c3)no2)C1` [F6064-2602], the “Response at 50 μM (%)” value in test [1] came out at 22.3%.

`COCCNC(=O)N1CC(c2nc(-c3cccc(Cl)c3)no2)C1` [F6064-2993]: the “Response at 50 μM (%)” value in test [1] was 9.8.

Consider `O=C(Cc1noc2ccccc12)N1CC(c2nc(-c3ccc[nH]c3=O)no2)C1` [F6064-7687], for which the “Response at 50 μM (%)” value in test [1] is 9.3.

For the molecule `O=S(=O)(NCC#CCOc1cccc(C(F)(F)F)c1)c1cccs1` [F6412-1980], in test [1], the “Response at 50 μM (%)” value amounted to 27.1%.

As for `O=C(Cc1cccnc1)N1CC(n2cc(COc3ccccc3)nn2)C1` [F6514-4048], the “Response at 50 μM (%)” value in test [1] is given as 10.5.

Take `CC(=O)n1ccc2ccc(C(=O)CSc3nnc(-c4cccnc4)n3C)cc21` [K822-0272]: the “Response at 50 μM (%)” value in test [1] worked out at 13.8.

In test [1], `CCCCC/C=C\C/C=C\CCCCCCCC(=O)O` [LA, linoleic acid, reference compound] returned an equilibrium dissociation constant (Kd) of 34.2 µM.

`CCCCCCCC/C=C\CCCCCCCC(=O)O` [OA, oleic acid, reference compound] had an equilibrium dissociation constant (Kd) in test [1] of 28.5 µM.

Turning to `COc1cccc(C(=O)COC(=O)c2ccc(O)cc2O)c1` [SPC-1], in test [1], the “Response at 50 μM (%)” value came out at 46%.

As for `Cc1nc(CSCCC(=O)N2CCc3ccc([N+](=O)[O-])cc32)cs1` [SPC-2], the “Response at 50 μM (%)” value in test [1] came to 40.2%.

`Cn1c(SCc2nc(-c3ccccc3Cl)no2)nnc1-c1ccccc1F` [SPC-3]: the “Response at 50 μM (%)” value in test [1] was determined as 51.8%.

On to `CN(CCc1cnn(C)c1)C(=O)c1ccc(-c2ccccc2Cl)o1` [SPC-4], for which the “Response at 50 μM (%)” value in test [1] amounted to 30.4%.

Regarding `COc1ccc(-c2noc(CSc3nnc(-c4ccccc4)n3C)n2)cc1` [SPC-5], the “Response at 50 μM (%)” value in test [1] stood at 46.1%.

`COc1cccc(-c2noc(CCC(=O)Nc3cccnc3)n2)c1` [SPC-6]: the “Response at 50 μM (%)” value in test [1] was 35.9%.

Regarding `O=C(O)CCCCCC(=O)N1CCc2ccc([N+](=O)[O-])cc21` [SPC-14], at SARS-CoV-2 spike protein, the “particles in the closed state (three RBD down)” value was “about 48%” and the “particles in the open state with one RBD up” value is recorded as 52%.

Take `Cn1c(SCc2nc(-c3ccccc3)no2)nnc1-c1ccco1` [STL416744]: the “Response at 50 μM (%)” value in test [1] is 30.3%.

As for `c1ccc(-c2nnc(SCCCSc3nnc(-c4ccccc4)o3)o2)cc1` [T6013936], the “Response at 50 μM (%)” value in test [1] came out at 17.1.

Take `Cc1nc(C)c(-c2nnc(SCc3nc(-c4cccs4)oc3C)o2)s1` [T6037875]: the “Response at 50 μM (%)” value in test [1] is reported as 18.3.

As to `COc1ccc(-c2nnc(SCc3nc(-c4ccco4)no3)o2)cc1` [T6080959], the “Response at 50 μM (%)” value in test [1] is recorded as 21.2%.

Regarding `c1csc(-c2noc(CSc3nnc(NC4CC4)s3)n2)c1` [T6141058], in test [1], the “Response at 50 μM (%)” value was 14.3.

For `Cc1ccc(-c2nc(CSc3nnc(-c4ccco4)o3)no2)cc1` [T6363271], the “Response at 50 μM (%)” value in test [1] is 2.9.

For `Cc1cc(C(=O)CSc2nnc(-c3nnc(-c4ccccc4)o3)o2)c(C)n1C` [T6388553], the “Response at 50 μM (%)” value in test [1] is listed as 18.3.

With `CSc1nc(N)n2nc(C(C)(C)C)cc2n1` [compound 6536], in test [1], the “Response at 50 μM (%)” value came to 23.3%.

On to `Cc1nc(C(F)(F)F)ccc1-c1nnc(SCc2ccc(OC(F)(F)F)cc2)o1` [compound 9502], for which the “Response at 50 μM (%)” value in test [1] was found to be 26.3%.

For the molecule `CN(CCCO)C(=O)c1coc(COc2cccc(F)c2F)n1` [compound 11547730], in test [1], the “Response at 50 μM (%)” value is given as 14.9.

`Cc1cccc(-c2noc(CCc3nc(C4CCOC4)no3)n2)c1` (stereo not drawn) [compound 18297954]: the “Response at 50 μM (%)” value in test [1] came out at 16.5.

`COc1cccc(-c2ncc(CNC(=O)CC3NC(=O)NC3=O)s2)c1` (stereo not drawn) [compound 42995570]: the “Response at 50 μM (%)” value in test [1] was 16.
